Test results: ChEMBL document CHEMBL1145206, “Design, synthesis and structure-activity relationships of novel taxane-based multidrug resistance reversal agents” (2005)

Tested on: MDA-MB-435
Assay: MDR-reversal activity evaluated against the resistant human breast tumor cell line MDA-435/LCC6-MDR
Type: functional
Parameters: concentration or dose not given beside the values

SMILES | Reduction [%]
CC(=O)O[C@H]1C(=O)[C@]2(C)[C@@H](OC(=O)/C=C/c3cccc(NC(=O)c4ccccc4)c3)C[C@H]3OC[C@@]3(OC(C)=O)[C@H]2[C@H](OC(=O)c2ccccc2)[C@]2(O)C[C@H](OC(C)=O)C(C)=C1C2(C)C | 83
COc1cccc(C(=O)Oc2ccc(/C=C/C(=O)O[C@H]3C[C@H]4OC[C@@]4(OC(C)=O)[C@H]4[C@H](OC(=O)c5ccccc5)[C@]5(O)C[C@H](OC(C)=O)C(C)=C([C@@H](OC(C)=O)C(=O)[C@]34C)C5(C)C)cc2)c1 | 34
CC(=O)O[C@H]1C(=O)[C@]2(C)[C@@H](OC(=O)/C=C/c3ccc(OC(=O)c4ccc(O)cc4)cc3)C[C@H]3OC[C@@]3(OC(C)=O)[C@H]2[C@H](OC(=O)c2ccccc2)[C@]2(O)C[C@H](OC(C)=O)C(C)=C1C2(C)C | 24
CC(=O)O[C@H]1C(=O)[C@]2(C)[C@@H](OC(=O)/C=C/c3ccc(OC(=O)c4cccs4)cc3)C[C@H]3OC[C@@]3(OC(C)=O)[C@H]2[C@H](OC(=O)c2ccccc2)[C@]23OC(=O)O[C@H]2[C@H](OC(C)=O)C(C)=C1C3(C)C | 55
COc1ccccc1C(=O)Oc1ccc(/C=C/C(=O)O[C@H]2C[C@H]3OC[C@@]3(OC(C)=O)[C@H]3[C@H](OC(=O)c4ccccc4)[C@]4(O)C[C@H](OC(C)=O)C(C)=C([C@@H](OC(C)=O)C(=O)[C@]23C)C4(C)C)cc1 | 57
CC(=O)O[C@H]1C[C@@]2(O)[C@@H](OC(=O)c3ccccc3)[C@@H]3[C@]4(OC(C)=O)CO[C@@H]4C[C@H](OC(C)=O)[C@@]3(C)C(=O)[C@H](OC(=O)/C=C/c3ccc(OC(=O)c4ccccc4)cc3)C(=C1C)C2(C)C | 7
CC(=O)O[C@H]1C(=O)[C@]2(C)[C@@H](OC(=O)/C=C/c3ccc(OC(=O)c4ccccc4)cc3)C[C@H]3OC[C@@]3(OC(C)=O)[C@H]2[C@H](OC(=O)c2ccccc2)[C@]2(O)C[C@H](OC(C)=O)C(C)=C1C2(C)C | 91
CC(=O)O[C@H]1C(=O)[C@]2(C)[C@@H](OC(=O)/C=C/c3cccc(NC(=O)c4ccccc4)c3)C[C@H]3OC[C@@]3(OC(C)=O)[C@H]2[C@H](OC(=O)c2ccccc2)[C@]23OC(=O)O[C@H]2[C@H](OC(C)=O)C(C)=C1C3(C)C | 91
CC(=O)O[C@H]1C(=O)[C@]2(C)[C@@H](OC(=O)/C=C/c3ccc(OC(=O)c4ccc[nH]4)cc3)C[C@H]3OC[C@@]3(OC(C)=O)[C@H]2[C@H](OC(=O)c2ccccc2)[C@]23OC(=O)O[C@H]2[C@H](OC(C)=O)C(C)=C1C3(C)C | 63
CC(=O)O[C@H]1C(=O)[C@]2(C)[C@@H](OC(=O)/C=C/c3ccc(C(=O)Oc4ccccc4)cc3)C[C@H]3OC[C@@]3(OC(C)=O)[C@H]2[C@H](OC(=O)c2ccccc2)[C@]23OC(=O)O[C@H]2[C@H](OC(C)=O)C(C)=C1C3(C)C | 84
CC(=O)O[C@H]1C(=O)[C@]2(C)[C@@H](OC(=O)/C=C/c3ccc(OC(=O)c4ccc(Br)cc4)cc3)C[C@H]3OC[C@@]3(OC(C)=O)[C@H]2[C@H](OC(=O)c2ccccc2)[C@]23OC(=O)O[C@H]2[C@H](OC(C)=O)C(C)=C1C3(C)C | 34
CC(=O)O[C@H]1C[C@@]2(O)[C@@H](OC(=O)c3ccccc3)[C@@H]3[C@]4(OC(C)=O)CO[C@@H]4C[C@H](OC(=O)/C=C/c4ccc(C(=O)c5ccccc5)cc4)[C@@]3(C)C(=O)[C@H](OC(=O)c3ccccc3)C(=C1C)C2(C)C | 51
COc1ccc(C(=O)Oc2ccc(/C=C/C(=O)O[C@H]3C[C@H]4OC[C@@]4(OC(C)=O)[C@H]4[C@H](OC(=O)c5ccccc5)[C@]56OC(=O)O[C@H]5[C@H](OC(C)=O)C(C)=C([C@@H](OC(C)=O)C(=O)[C@]34C)C6(C)C)cc2)cc1 | 69
CC(=O)O[C@H]1C(=O)[C@]2(C)[C@@H](OC(=O)/C=C/c3ccc(OC(=O)c4cc5ccccc5[nH]4)cc3)C[C@H]3OC[C@@]3(OC(C)=O)[C@H]2[C@H](OC(=O)c2ccccc2)[C@]23OC(=O)O[C@H]2[C@H](OC(C)=O)C(C)=C1C3(C)C | 43
COc1cccc(C(=O)Oc2ccc(/C=C/C(=O)O[C@H]3C[C@H]4OC[C@@]4(OC(C)=O)[C@H]4[C@H](OC(=O)c5ccccc5)[C@]56OC(=O)O[C@H]5[C@H](OC(C)=O)C(C)=C([C@@H](OC(C)=O)C(=O)[C@]34C)C6(C)C)cc2)c1 | 62
CC(=O)O[C@H]1C[C@@]2(O)[C@@H](OC(=O)c3ccccc3)[C@@H]3[C@]4(OC(C)=O)CO[C@@H]4C[C@H](OC(C)=O)[C@@]3(C)C(=O)[C@H](OC(=O)/C=C/c3cccc(NC(=O)c4ccccc4)c3)C(=C1C)C2(C)C | 43
CC(=O)O[C@H]1C[C@@]2(O)[C@@H](OC(=O)c3ccccc3)[C@@H]3[C@]4(OC(C)=O)CO[C@@H]4C[C@H](OC(C)=O)[C@@]3(C)C(=O)[C@H](OC(=O)/C=C/c3ccc(Oc4ccccc4)cc3)C(=C1C)C2(C)C | 29
CC(=O)O[C@H]1C[C@@]2(O)[C@@H](OC(=O)c3ccccc3)[C@@H]3[C@]4(OC(C)=O)CO[C@@H]4C[C@H](OC(C)=O)[C@@]3(C)C(=O)[C@H](OC(=O)/C=C/c3ccc(C(=O)Oc4ccccc4)cc3)C(=C1C)C2(C)C | 24
CC(=O)O[C@H]1C(=O)[C@]2(C)[C@@H](OC(=O)/C=C/c3ccc(C(=O)Oc4ccccc4)cc3)C[C@H]3OC[C@@]3(OC(C)=O)[C@H]2[C@H](OC(=O)c2ccccc2)[C@]2(O)C[C@H](OC(C)=O)C(C)=C1C2(C)C | 27
COc1ccc(C(=O)Oc2ccc(/C=C/C(=O)O[C@H]3C[C@H]4OC[C@@]4(OC(C)=O)[C@H]4[C@H](OC(=O)c5ccccc5)[C@]5(O)C[C@H](OC(C)=O)C(C)=C([C@@H](OC(C)=O)C(=O)[C@]34C)C5(C)C)cc2)cc1 | 39
CC(=O)O[C@H]1C[C@@]2(O)[C@@H](OC(=O)c3ccccc3)[C@@H]3[C@]4(OC(C)=O)CO[C@@H]4C[C@H](OC(C)=O)[C@@]3(C)C(=O)[C@H](OC(=O)/C=C/c3ccc(Sc4ccccc4)cc3)C(=C1C)C2(C)C | 28
CC(=O)O[C@H]1C(=O)[C@]2(C)[C@@H](OC(=O)/C=C/c3cccc(OC(=O)c4ccccc4)c3)C[C@H]3OC[C@@]3(OC(C)=O)[C@H]2[C@H](OC(=O)c2ccccc2)[C@]2(O)C[C@H](OC(C)=O)C(C)=C1C2(C)C | 17
CC(=O)O[C@H]1C(=O)[C@]2(C)[C@@H](OC(=O)/C=C/c3ccc(OC(=O)c4ccccc4)cc3)C[C@H]3OC[C@@]3(OC(C)=O)[C@H]2[C@H](OC(=O)c2ccccc2)[C@]23OC(=O)O[C@H]2[C@H](OC(C)=O)C(C)=C1C3(C)C | 95
CC(=O)O[C@H]1C(=O)[C@]2(C)[C@@H](OC(=O)/C=C/c3ccc(OC(=O)c4cccc5ccccc45)cc3)C[C@H]3OC[C@@]3(OC(C)=O)[C@H]2[C@H](OC(=O)c2ccccc2)[C@]2(O)C[C@H](OC(C)=O)C(C)=C1C2(C)C | 89
COc1ccccc1C(=O)Oc1ccc(/C=C/C(=O)O[C@H]2C[C@H]3OC[C@@]3(OC(C)=O)[C@H]3[C@H](OC(=O)c4ccccc4)[C@]45OC(=O)O[C@H]4[C@H](OC(C)=O)C(C)=C([C@@H](OC(C)=O)C(=O)[C@]23C)C5(C)C)cc1 | 79
CC(=O)O[C@H]1C(=O)[C@]2(C)[C@@H](OC(=O)/C=C/c3ccc(OC(=O)c4ccc([N+](=O)[O-])cc4)cc3)C[C@H]3OC[C@@]3(OC(C)=O)[C@H]2[C@H](OC(=O)c2ccccc2)[C@]23OC(=O)O[C@H]2[C@H](OC(C)=O)C(C)=C1C3(C)C | 27
CC(=O)O[C@H]1C(=O)[C@]2(C)[C@@H](OC(=O)/C=C/c3ccc(OC(=O)c4ccc5ccccc5c4)cc3)C[C@H]3OC[C@@]3(OC(C)=O)[C@H]2[C@H](OC(=O)c2ccccc2)[C@]2(O)C[C@H](OC(C)=O)C(C)=C1C2(C)C | 29
